From US20210198629A1, “COMPOSITIONS AND METHODS FOR INCREASING BEIGING OF WHITE ADIPOSE TISSUE” (University of Georgia Research Foundation, Inc., priority 2018, published 2021)

How the values were obtained:
[1] = system: primary white adipose progenitor cells; test: RT-qPCR of markers after treating proliferative primary white adipose progenitor cells, then basal differentiation
Experimental: Tissue suspension was sequentially filtered through 100 and 70 μm cell strainers and centrifuged at 800×g for 5 min to pellet SVF cells.
The cell pellet was resuspended in a growth medium (DMEM high glucose containing 20% FBS and 1% penicillin/streptomycin), plated on collagen-coated cell culture plates, and cultured at 37° C. with 5% CO2. To expand adipose progenitor cells, proliferative adipose progenitor cells were passaged for two times when the confluence reaches 70%.
To differentiate into adipocytes, white adipose progenitor cells were cultured in growth media to reach 100% confluence for 1 day. […] After 2-day induction, the media was changed to basal differentiation medium (DMEM high glucose containing 10% FBS, 850 nM insulin, 1% penicillin/streptomycin) and further incubated for 4-5 days. To differentiate beige adipocytes, fully confluent white adipose progenitor cells were incubated with the above induction medium supplemented with 2 mM rosiglitazone and 1 nM T3 for 2 days and further differentiated in the basal differentiation medium supplemented with 1 mM rosiglitazone and 1 nM T3 for 4-5 days.

AML xenograft model = conditions: cited from earlier work
[2] = system: differentiated white adipocytes; test: RT-qPCR of markers after treating differentiated white adipocytes; assay type: cell-based, mouse; conditions: differentiated white adipocytes treated for 48 hours
Experimental: To differentiate into adipocytes, white adipose progenitor cells were cultured in growth media to reach 100% confluence for 1 day. The growth media was changed into basal induction medium (DMEM high glucose containing 10% FBS, 0.5 mM isobutylmethylxanthine, […] indomethacin, 2 μg/mL dexamethasone, 850 nM insulin, 1% penicillin/streptomycin). After 2-day induction, the media was changed to basal differentiation medium (DMEM high glucose containing 10% FBS, 850 nM insulin, 1% penicillin/streptomycin) and further incubated for 4-5 days. To differentiate beige adipocytes, fully confluent white adipose progenitor cells were incubated with the above induction medium supplemented with […] rosiglitazone and 1 nM T3 for 2 days and further differentiated in the basal differentiation medium supplemented with […] rosiglitazone and 1 nM T3 for 4-5 days.
Total RNA was isolated from tissue or cell culture using TRIzol. Total RNA (500 ng) from tissues or cell culture was used in 25 μL reverse transcription reactions (Maxima; Life technologies) and diluted into 250 μL. Diluted cDNA (2 μL) was used in quantitative PCR reactions (SsoAdvanced™ Universal SYBR Green mix; Bio-Rad) on a BioRad CFX384™ Real-Time PCR Detection System. Cq-values were determined and expression values were calculated by BioRad CFX Manager™ Software. Relative mRNA expression values were normalized to inner reference genes Rps18 and Tbp of each biological sample. For mitochondrial copy number qPCR, mitochondrial Cox2 gene was amplified and normalized to genomic β-globin gene.
In the above lentivirus-based primary/secondary screenings, sgRNA-mediated genome editing and consequent gene KO could occur either in proliferative adipose progenitor cells or fully-differentiated adipocytes. As such, Brd9 may function as a beige lineage repressor by either repressing the beige adipocyte lineage differentiation or the white-to-beige adipocyte conversion. To distinguish the above possibilities, white adipocytes were differentiated from white adipose progenitor cells under the basal differentiation condition and the differentiated white adipocytes were treated with BI-7273 for 48 hours. […] Therefore, BI-7273 likely induces the beige lineage determination and differentiation of white adipose progenitor cells by inhibiting BRD9.

type 2 diabetic DIO mice = test: Blood glucose, HbA1c, HOMA-IR, IPGTT, IPITT in DIO mice after oral BI-7273; assay type: in vivo, mouse
Experimental: Blood samples were taken from the tail vein and measured on HbA1c cartridges (5035C) loaded in a DCA Vantage Analyzer (Siemens).
(§1) IPGTT was performed after 16 hrs fasting. Glucose (2 g kg^−1 body weight) was injected intraperitoneally. Blood samples were taken from the tail vein. Glucose levels were measured at 0, 15, 30, 60, and 120 min after glucose injection using a glucometer (OneTouch, Ultra 2).
as §1, with “IPITT” for “IPGTT”, “6” for “16”, “Insulin (0.75 U” for “Glucose (2 g”, “weight, Roche Risch-Rotkreuz, Switzerland)” for “weight)”, “insulin” for “glucose”
Next, whether BI-7273 oral administration is sufficient to protect DIO models from type 2 diabetes was investigated. Before gavage (3 months after HFD feeding), DIO models developed diabetes as evidenced by 1) averaged random non-fasting blood glucose level at ˜250 mg/dL; and 2) averaged glycated hemoglobin (HbA1c) level at 6.5% (FIG. 6A, B). […] Upon HFD feeding, C57BL/6 mice are predisposed to type 2 diabetes, which is characterized by insulin resistance (averaged HOMA-IR index=95; FIG. 6C)(32). BI-7273 oral administration lowered HOMA-IR index (to ˜55%; FIG. 6C), indicating much improved β-cell function and insulin resistance.

[3] = system: acute myeloid leukemia (AML) cells; conditions: AML cells in vitro; cited from earlier work
DIO mice = test: Indirect calorimetry of DIO mice after oral BI-7273; assay type: in vivo, mouse
Experimental: Indirect calorimetry was performed on a Columbus Instruments CLAMS system equipped with 8 metabolic cages. Oxygen consumption (VO2; ml/min) and carbon dioxide production (VCO2; ml/min) were measured at 22° C. with 12-hr:12-hr dark:light cycles. Total energy expenditure was estimated using the equation published before […]). Data were normalized to the body weight of each animal. Physical activity is measured by counting infrared beam breaking events.
Next, whether oral administration of BI-7273 is sufficient to increase the whole-body energy expenditure was investigated. DIO models were gavaged with BI-7273 or control 0.5% Natrosol for 14 days as described above and later housed individually in metabolic cages for 10 days. […] HFD-fed control DIO models had very low respiratory exchange ratios (RER; ˜0.6 in light cycles and 0.72 in dark cycles), which is consistent with their high lipid utilization and insulin resistance (IR) states.

[4] = 10 μM for 48 hours in progenitor stage, then basal differentiation, vs 0.1% DMSO
[5] = 14-day oral administration, 1 month HFD refeeding
[6] = light and dark cycles, after 14-day gavage

Structure (SMILES): COc1cc(-c2cn(C)c(=O)c3cnccc23)cc(OC)c1CN(C)C [BI-7273, 4-[4-[(dimethylamino)methyl]-3,5-dimethoxyphenyl]-2-methyl-2,7-naphthyridin-1-one]
- adipocyte markers (Pparg2, Leptin, Adiponectin, Fabp4) [1, 4]: not affected
- mRNA levels of beige lineage markers (Pgc1α, Ucp1, Cedia, Dio2, Elovl3) [1, 4]: drastically increased
- mRNA levels of mitochondrial markers (Ndufb2, Sdha, Uqcrc2, Cox8b, Atp5a1) [1, 4]: increased
- Pgc1β mRNA level ([1]; proliferative white adipose progenitor cells, vs vehicle): increased
- antitumor activity (AML xenograft model): antitumor activity
- Ucp1 mRNA increase [2]: 1.6 fold
- adipogenic markers (Pparg2, Leptin, Adiponectin, Fabp4) [2]: not affected
- mitochondrial markers (Ndufb2, Sdha, Uqcrc2, Cox8b, Atp5a1) increase [2]: 1.7-2.0 fold
- other beige lineage markers (Pgc1α, Cedia, Dio2, Elovl3) [2]: did not raise
- HbA1c level (type 2 diabetic DIO mice; 100 mg/kg/day oral for 14 days, 6.5% before gavage): ~5%
- random non-fasting blood glucose level (type 2 diabetic DIO mice; 100 mg/kg/day oral for 14 days, ~250 mg/dL before gavage): 130 mg/dL
- glucose tolerance (IPGTT) (type 2 diabetic DIO mice; [5]): drastically improved
- insulin sensitivity (IPITT) (type 2 diabetic DIO mice; [5]): drastically improved
- HOMA-IR index (type 2 diabetic DIO mice; oral administration, averaged index 95 upon HFD feeding): ~55%
- MYC expression [3]: suppress
- rapid cell proliferation [3]: suppress
- respiratory exchange ratio (RER) (DIO mice; light and dark cycles): markedly increased
- oxygen consumption (VO2) (DIO mice; [6]): drastically increased
- total energy expenditure (E.E.) (DIO mice; [6]): drastically increased
- physical activity (DIO mice; vs control, light or dark cycles): comparable
